How the values were obtained:
[1] = tested on: hairless mice (strain Swiss CD3, Nu/Nu); experiment: Irritating action of D609 ointments on hairless mice; settings: for number of animals with slight erythema: 10 mice per group
Experimental: (§1) D609 was mixed in a mortar together with the same proportion by weight of potassium salt of decanoic acid and two parts by weight of phosphatidylcholine or two or four parts by weight of cholesterol. After this, sufficient highly liquid paraffin oil and petroleum jelly (1 part by weight of paraffin oil, 4 parts by weight of petroleum jelly) were added such that in each case a concentration of 1.25; 2.5; 5.0; or 10% of D609 was achieved. In the same manner, D609-containing ointments without phosphatidylcholine or cholesterol were prepared.
(§2) 100 mg of ointment were applied twice in the neck region to 10 hairless mice each (strain Swiss CD3, Nu/Nu) at an interval of four hours. 12 hours after the last application, the degree of irritation was read off. The irritation was assessed according to the following scheme: slight erythema 0.5; severe erythema 1.0; ulceration 2.0.

[2] = tested on: herpes simplex virus 1; experiment: Antiviral use of D609 ointment in animal experiments (background); format: in vivo
[3] = Stability of D609 in aqueous solution (pH increase as measure of decomposition); format: physicochemical; settings: 1 mg/ml D609 in distilled water, 37° C.
Experimental: D609 was dissolved in distilled water in a concentration of 1 mg/ml. 100 ml of this solution in each case were filled into a 200 ml Erlenmeyer flask. One of two solutions was treated with 1 g of cholesterol. Both solutions were incubated at 37° C. The pH of the solutions was determined at regular intervals. D609 decomposes in the presence of water to give tricyclodecanol, carbon disulfide and KOH. The pH of the solution increases with the formation of KOH. The increase in the pH is therefore a measure of the decomposition of D609.

[4] = Tolerability of D609 / xanthates in ointments (background); settings: ointment
[5] = tested on: herpes simplex virus 1 (HSV 1), strain Angelotti; experiment: Antiviral action of D609 against HSV 1 (cytopathogenic effect) in monkey renal cells; format: cell-based; settings: for D609 concentration necessary to reduce the number of the infected cultures by 50%: monkey renal cells (Rita line)
Experimental: Monkey renal cells (Rita line) were infected in Linbro plates with 20 plaque-forming units of herpes simplex virus 1 (HSV 1), strain Angelotti. After 15 min, fresh cell culture medium (adjusted to pH 6.8 by reduction of the amount of sodium bicarbonate to 0.85 g/l and addition of 1 ml of 1 N HCl) which contained either 0, 5, 10, 15, 20, 25 or 30 μg/ml of D609 was added. All batches were carried out in quadruplicate. At the same time, cultures containing D609 and a fourfold concentration of cholesterol or containing cholesterol alone were treated. After 5 days, the monkey renal cells were lyzed in all untreated cultures by means of the cytopathogenic effect (cpe). After a further three days, the number of the cultures with cpe was determined for each D609 concentration. As can be inferred from FIG. 2, the number of cultures with cpe decreases with increasing D609 dose. The antiviral action of D609 was increased by cholesterol. While without cholesterol 25 μg/ml of D609 were necessary in order to reduce the number of the infected cultures by 50%, in the presence of cholesterol only 10 μg/ml of D609 were necessary. Cholesterol alone had no effect on the replication of HSV. Up to the highest concentration (120 μg/ml), all cultures were lyzed by HSV 1.

[6] = tested on: hairless mice (strain Swiss CD3, Nu/Nu); settings: mouse, in vivo
Experimental: as §1, §2

[7] = ointments with 4 parts by weight of cholesterol, 10% D609
[8] = ointments with two parts by weight of cholesterol (plus same weight of potassium salt of decanoic acid)

Structure (SMILES) | degree of irritation ([1]; 2.5% D609 in pure petroleum jelly ointment without phosphatidylcholine or cholesterol, 100 mg applied twice, read 12 hours after last application) | degree of irritation ([1]; 5% D609 in pure petroleum jelly ointment without phosphatidylcholine or cholesterol, 100 mg applied twice, read 12 hours after last application) | number of animals with slight erythema ([1]; ointments containing four parts by weight of phosphatidylcholine, 5% D609) | number of animals with slight erythema ([1]; ointments containing four parts by weight of phosphatidylcholine, 10% D609) | degree of irritation [1, 7] | number of animals with slight erythema [1, 7] | D609 concentration at which a significant irritation occurred [1, 8] [%] | degree of irritation [1, 8] | concentration needed in an ointment for effective antiviral use [2] | pH increase and thus decomposition ([3]; 100 ml treated with 1 g of cholesterol, after 72 hours) | time within which marked decomposition is seen ([3]; without cholesterol) [h] | maximum tolerable concentration in ointments [4] [%] | D609 concentration necessary to reduce the number of the infected cultures by 50% ([5]; in the presence of a fourfold concentration of cholesterol, pH 6.8) [µg/mL] | factor by which antiviral action of D609 is improved by cholesterol ([5]; pH 6.8, with versus without cholesterol) | D609 concentration necessary to reduce the number of the infected cultures by 50% ([5]; without cholesterol, pH 6.8, cpe read after 8 days) [µg/mL] | tolerability [6] | effect on the replication of HSV ([5]; cholesterol alone, up to the highest concentration (120 μg/ml), all cultures were lyzed)
S=C(S)OC1CC2CC1C1CCCC21 (centres unmarked) [D609, tricyclodecan-9-yl xanthate] | marked irritation | very strongly pronounced | one | five | almost free of irritant action | one | 10 | marked decrease in the symptoms | at least 2.5% | only a small pH increase | ≤ 6 | 1 | 10 | > 2.5 | 25 | marked improvement in the tolerability | 
CC(C)CCC[C@@H](C)[C@H]1CC[C@H]2[C@@H]3CC=C4C[C@@H](O)CC[C@]4(C)[C@H]3CC[C@]12C [Cholesterol, cholesterol] |  |  |  |  |  |  |  |  |  |  |  |  |  |  |  |  | no effect
